# From ChEMBL document CHEMBL1649565, “Besifloxacin, a novel fluoroquinolone, has broad-spectrum in vitro activity against aerobic and anaerobic bacteria” (Antimicrob Agents Chemother, 2009)
# Active and inactive are the calls of the source. The calls are words filed in the database; no cut-off is given here.
# Columns and labels:
# Enterococcus faecium = test: Antibacterial activity against vancomycin- resistant Enterococcus faecium by CLSI M100-S18 method; type: functional
# Listeria monocytogenes = test: Antibacterial activity against Listeria monocytogenes by CLSI M100-S18 method; type: functional
# Staphylococcus aureus [1] = test: Antibacterial activity against ciprofloxacin-susceptible and methicillin-resistant Staphylococcus aureus by CLSI M100-S18 method; type: functional
# Staphylococcus aureus [2] = test: Antibacterial activity against non-ciprofloxacin-susceptible and methicillin-susceptible Staphylococcus aureus by CLSI M100-S18 method; type: functional
# [3] = tested on: Staphylococcus epidermidis; test: Antibacterial activity against ciprofloxacin-susceptible and methicillin-resistant Staphylococcus epidermidis by CLSI M100-S18 method; type: functional
# [4] = tested on: Staphylococcus haemolyticus; test: Antibacterial activity against Staphylococcus haemolyticus by CLSI M100-S18 method; type: functional
# Staphylococcus hominis [5] = test: Antibacterial activity against Staphylococcus hominis by CLSI M100-S18 method; type: functional
# Staphylococcus warneri = test: Antibacterial activity against Staphylococcus warneri by CLSI M100-S18 method; type: functional
# Streptococcus agalactiae = test: Antibacterial activity against Streptococcus agalactiae by CLSI M100-S18 method; type: functional
# Streptococcus sp. = test: Antibacterial activity against Lancefield Streptococcus sp. group F by CLSI M100-S18 method; type: functional
# [6] = Antibacterial activity against Lancefield Streptococcus sp. 'group G' by CLSI M100-S18 method; type: functional
# Streptococcus pneumoniae [7] = test: Antibacterial activity against non-levofloxacin susceptible Streptococcus pneumoniae by CLSI M100-S18 method; type: functional
# Streptococcus equinus = test: Antibacterial activity against Streptococcus bovis by CLSI M100-S18 method; type: functional
# [8] = tested on: Streptococcus constellatus; test: Antibacterial activity against Streptococcus constellatus by CLSI M100-S18 method; type: functional
# [9] = tested on: Streptococcus intermedius; test: Antibacterial activity against Streptococcus intermedius by CLSI M100-S18 method; type: functional
# Streptococcus salivarius = test: Antibacterial activity against Streptococcus salivarius by CLSI M100-S18 method; type: functional
# Streptococcus sanguinis = test: Antibacterial activity against Streptococcus sanguinis by CLSI M100-S18 method; type: functional
# [10] = tested on: Acinetobacter calcoaceticus; test: Antibacterial activity against Acinetobacter calcoaceticus by CLSI M7-A7 method; type: functional
# Acinetobacter lwoffii = test: Antibacterial activity against Acinetobacter lwoffii by CLSI M7-A7 method; type: functional
# Citrobacter koseri = test: Antibacterial activity against Citrobacter koseri by CLSI M7-A7 method; type: functional
# Haemophilus influenzae [11] = test: Antibacterial activity against ciprofloxacin-susceptible Haemophilus influenzae by CLSI M7-A7 method; type: functional
# Haemophilus influenzae [12] = test: Antibacterial activity against non-ciprofloxacin-susceptible Haemophilus influenzae by CLSI M7-A7 method; type: functional
# Klebsiella oxytoca = test: Antibacterial activity against Klebsiella oxytoca by CLSI M7-A7 method; type: functional
# Klebsiella pneumoniae [13] = test: Antibacterial activity against Klebsiella pneumoniae by CLSI M7-A7 method; type: functional
# Moraxella catarrhalis = test: Antibacterial activity against Moraxella catarrhalis by CLSI M7-A7 method; type: functional
# Morganella morganii = test: Antibacterial activity against Morganella morganii by CLSI M7-A7 method; type: functional
# Proteus mirabilis = test: Antibacterial activity against Proteus mirabilis by CLSI M7-A7 method; type: functional
# Proteus vulgaris = test: Antibacterial activity against Proteus vulgaris by CLSI M7-A7 method; type: functional
# Pseudomonas aeruginosa [14] = test: Antibacterial activity against ciprofloxacin-susceptible Pseudomonas aeruginosa by CLSI M7-A7 method; type: functional
# Pseudomonas aeruginosa [15] = test: Antibacterial activity against non-ciprofloxacin-susceptible Pseudomonas aeruginosa by CLSI M7-A7 method; type: functional
# Serratia marcescens [16] = test: Antibacterial activity against Serratia marcescens by CLSI M7-A7 method; type: functional
# [17] = tested on: Stenotrophomonas maltophilia; test: Antibacterial activity against non-levofloxacin susceptible Stenotrophomonas maltophilia by CLSI M7-A7 method; type: functional
# Staphylococcus aureus [18] = test: Antibacterial activity against ciprofloxacin-susceptible and methicillin-resistant Staphylococcus aureus assessed as percent susceptible isolates by CLSI M100-S18 method; type: functional
# [19] = tested on: Staphylococcus epidermidis; test: Antibacterial activity against non-ciprofloxacin-susceptible and methicillin-susceptible Staphylococcus epidermidis assessed as percent susceptible isolates by CLSI M100-S18 method; type: functional
# [20] = tested on: Staphylococcus haemolyticus; test: Antibacterial activity against Staphylococcus haemolyticus assessed as percent susceptible isolates by CLSI M100-S18 method; type: functional
# Staphylococcus hominis [21] = test: Antibacterial activity against Staphylococcus hominis assessed as percent susceptible isolates by CLSI M100-S18 method; type: functional
# [22] = tested on: Staphylococcus lugdunensis; test: Antibacterial activity against Staphylococcus lugdunensis assessed as percent susceptible isolates by CLSI M100-S18 method; type: functional
# [23] = tested on: Staphylococcus saprophyticus; test: Antibacterial activity against Staphylococcus saprophyticus assessed as percent susceptible isolates by CLSI M100-S18 method; type: functional
# Streptococcus pneumoniae [24] = test: Antibacterial activity against non-levofloxacin susceptible Streptococcus pneumoniae assessed as percent susceptible isolates by CLSI M100-S18 method; type: functional
# Citrobacter freundii = test: Antibacterial activity against Citrobacter freundii assessed as percent susceptible isolates by CLSI M7-A7 method; type: functional
# Enterobacter cloacae = test: Antibacterial activity against Enterobacter cloacae assessed as percent susceptible isolates by CLSI M7-A7 method; type: functional
# Haemophilus influenzae [25] = test: Antibacterial activity against non-ciprofloxacin-susceptible Haemophilus influenzae assessed as percent susceptible isolates by CLSI M7-A7 method; type: functional
# Klebsiella pneumoniae [26] = test: Antibacterial activity against Klebsiella pneumoniae assessed as percent susceptible isolates by CLSI M7-A7 method; type: functional
# Serratia marcescens [27] = test: Antibacterial activity against levofloxacin susceptible Serratia marcescens assessed as percent susceptible isolates by CLSI M7-A7 method; type: functional
# [28] = tested on: Stenotrophomonas maltophilia; test: Antibacterial activity against levofloxacin-susceptible Stenotrophomonas maltophilia by CLSI M7-A7 method; type: functional
# [29] = tested on: Staphylococcus epidermidis
# [30] = tested on: Staphylococcus epidermidis; remark: listed apart in the source
smiles,measurement,setting,value
C[C@H]1COc2c(N3CCN(C)CC3)c(F)cc3c(=O)c(C(=O)O)cn1c23.C[C@H]1COc2c(N3CCN(C)CC3)c(F)cc3c(=O)c(C(=O)O)cn1c23.O [LEVOFLOXACIN],MIC50,Enterococcus faecium,32 µg/mL
same,MIC90,Enterococcus faecium,128 µg/mL
same,MIC50,Listeria monocytogenes,0.5 µg/mL
same,MIC90,Listeria monocytogenes,1 µg/mL
same,MIC50,Staphylococcus aureus [1],0.12 µg/mL
same,MIC90,Staphylococcus aureus [1],0.25 µg/mL
same,MIC50,Staphylococcus aureus [2],> 8 µg/mL
same,MIC90,Staphylococcus aureus [2],> 8 µg/mL
same,MIC,[3],0.12 µg/mL
same,MIC50,[3],0.12 µg/mL
same,MIC50,[4],4 µg/mL
same,MIC90,[4],> 8 µg/mL
same,MIC50,Staphylococcus hominis [5],8 µg/mL
same,MIC90,Staphylococcus hominis [5],> 8 µg/mL
same,MIC50,Staphylococcus warneri,0.12 µg/mL
same,MIC90,Staphylococcus warneri,> 8 µg/mL
same,MIC,Streptococcus agalactiae,0.5 µg/mL
same,MIC50,Streptococcus agalactiae,0.5 µg/mL
same,MIC90,Streptococcus agalactiae,0.5 µg/mL
same,MIC50,Streptococcus sp.,0.5 µg/mL
same,MIC90,Streptococcus sp.,0.5 µg/mL
same,MIC50,[6],0.5 µg/mL
same,MIC90,[6],0.5 µg/mL
same,MIC50,Streptococcus pneumoniae [7],16 µg/mL
same,MIC90,Streptococcus pneumoniae [7],16 µg/mL
same,MIC50,Streptococcus equinus,1 µg/mL
same,MIC90,Streptococcus equinus,4 µg/mL
same,MIC50,[8],1 µg/mL
same,MIC90,[8],4 µg/mL
same,MIC50,[9],1 µg/mL
same,MIC90,[9],4 µg/mL
same,MIC50,Streptococcus salivarius,1 µg/mL
same,MIC90,Streptococcus salivarius,4 µg/mL
same,MIC50,Streptococcus sanguinis,1 µg/mL
same,MIC90,Streptococcus sanguinis,4 µg/mL
same,MIC50,[10],0.5 µg/mL
same,MIC90,[10],8 µg/mL
same,MIC50,Acinetobacter lwoffii,0.12 µg/mL
same,MIC90,Acinetobacter lwoffii,4 µg/mL
same,MIC50,Citrobacter koseri,0.03 µg/mL
same,MIC90,Citrobacter koseri,0.12 µg/mL
same,MIC50,Haemophilus influenzae [11],0.015 µg/mL
same,MIC90,Haemophilus influenzae [11],0.015 µg/mL
same,MIC50,Haemophilus influenzae [12],8 µg/mL
same,MIC90,Haemophilus influenzae [12],16 µg/mL
same,MIC50,Klebsiella oxytoca,0.03 µg/mL
same,MIC90,Klebsiella oxytoca,0.5 µg/mL
same,MIC50,Klebsiella pneumoniae [13],0.06 µg/mL
same,MIC90,Klebsiella pneumoniae [13],2 µg/mL
same,MIC50,Moraxella catarrhalis,0.015 µg/mL
same,MIC90,Moraxella catarrhalis,0.015 µg/mL
same,MIC50,Morganella morganii,0.06 µg/mL
same,MIC90,Morganella morganii,8 µg/mL
same,MIC50,Proteus mirabilis,0.03 µg/mL
same,MIC90,Proteus mirabilis,8 µg/mL
same,MIC50,Proteus vulgaris,0.03 µg/mL
same,MIC90,Proteus vulgaris,0.06 µg/mL
same,MIC50,Pseudomonas aeruginosa [14],0.5 µg/mL
same,MIC90,Pseudomonas aeruginosa [14],1 µg/mL
same,MIC50,Pseudomonas aeruginosa [15],16 µg/mL
same,MIC90,Pseudomonas aeruginosa [15],64 µg/mL
same,MIC50,Serratia marcescens [16],0.12 µg/mL
same,MIC90,Serratia marcescens [16],0.5 µg/mL
same,MIC,[17],0.12 µg/mL
same,Activity,Staphylococcus aureus [18],100%
same,Activity,[19],0%
same,Activity,[20],37.6%
same,Activity,Staphylococcus hominis [21],30%
same,Activity,[22],66.7%
same,Activity,[23],100%
same,Activity,Streptococcus pneumoniae [24],0%
same,Activity,Citrobacter freundii,90%
same,Activity,Enterobacter cloacae,92%
same,Activity,Haemophilus influenzae [25],27.3%
same,Activity,Klebsiella pneumoniae [26],91%
same,Activity,Serratia marcescens [27],100%
same,MIC,[28],4 µg/mL
same,MIC90,[29],inactive
same,MIC90,[30],inactive
